What is called AUC is concentration integrated over time. The AUC(0-t) is exposure summed from dosing to a finite time, without extrapolation to infinity. A higher AUC(0-t) goes with high exposure. The half-life is the time in which the quantity being followed falls by half. High values mean slow loss, low ones fast loss. A word on the CL/F: it is the apparent clearance, not corrected for the fraction that reaches the circulation. For orientation: bioavailability means the share of a dose that reaches the circulation, judged against a reference dose that is usually intravenous. Higher therefore signals much systemic uptake.

Assay type in all cases: ADME, organism-based
Series [1] is described as follows: AUC in rat at 3 mg/kg, po. The arrangement: dose 3 mg/kg, route oral. The following applies: plasma.
Series [2] can be described thus: AUC (0 to 6 hrs) in rat at 3 mg/kg, po. The arrangement: time < 6 hr, dose 3 mg/kg, route oral. To be noted: plasma.
Series [3] can be described thus: Half life in rat at 3 mg/kg, po. The arrangement: dose 3 mg/kg, route oral. To be noted: in vivo.
Series [4] is described as follows: Plasma clearance in rat at 3 mg/kg, po. The arrangement: dose 3 mg/kg, route oral.
A short description of series [5]: Bioavailability in rat at 3 mg/kg, po. To be noted: in vivo.

In series [1], `Cc1cnc2c(c1)CN(CCn1ncc3c1nc(N)n1nc(-c4ccco4)nc31)CC2` displayed an AUC of 7.98 µg·h/mL. In series [2], this compound returned an AUC(0-t) at 6 h of 3.49 µg·h/mL. The same compound showed a half-life in series [3] of 11.3 h. This compound showed a CL/F in series [4] of 0.282 L/h/kg. The bioavailability in series [5] was 71%.

Consider `COCCOc1cccc2c1CN(CCn1ncc3c1nc(N)n1nc(-c4ccco4)nc31)C2`, for which the AUC(0-t) at 6 h in series [2] is 0.215 µg·h/mL.

In the case of `Nc1nc2c(cnn2CCN2CCc3ncncc3C2)c2nc(-c3ccco3)nn12`, the AUC(0-t) at 6 h in series [2] was 0.467 µg·h/mL.

In the case of `COc1ccc2c(c1)CN(CCn1ncc3c1nc(N)n1nc(-c4ccco4)nc31)C2`, the AUC(0-t) at 6 h in series [2] is 0.199 µg·h/mL.

Consider `Nc1nc2c(cnn2CCN2CCc3ccccc3C2)c2nc(-c3ccco3)nn12`, for which, in series [2], the AUC(0-t) at 6 h is 0.06 µg·h/mL.

With `COc1ccc2c(c1)CN(CCn1ncc3c1nc(N)n1nc(-c4ccco4)nc31)CC2`, the AUC(0-t) at 6 h in series [2] turned out to be 0.357 µg·h/mL.

Compound `COCCOc1ccc2c(c1)CCN(CCn1ncc3c1nc(N)n1nc(-c4ccco4)nc31)CC2` registered an AUC(0-t) at 6 h in series [2] of 0.103 µg·h/mL.

In series [2], `Nc1nc2c(cnn2CCN2CCc3ncc(Br)cc3C2)c2nc(-c3ccco3)nn12` came in with an AUC(0-t) at 6 h of 2.02 µg·h/mL.

`Nc1nc2c(cnn2CCN2CCc3ccccc3CC2)c2nc(-c3ccco3)nn12`: the AUC(0-t) at 6 h in series [2] came out at 0.048 µg·h/mL.

Compound `Nc1nc2c(cnn2CCN2CCc3nc(C(F)(F)F)ccc3C2)c2nc(-c3ccco3)nn12` had an AUC(0-t) at 6 h in series [2] of 1.24 µg·h/mL.

Consider `Nc1nc2c(cnn2CCN2CCc3ncc(C4CC4)cc3C2)c2nc(-c3ccco3)nn12`, for which the AUC(0-t) at 6 h in series [2] came to 0.214 µg·h/mL.

`Nc1nc2c(cnn2CCN2Cc3ccccc3C2)c2nc(-c3ccco3)nn12` registered an AUC(0-t) at 6 h in series [2] of 0.287 µg·h/mL.

On to `COc1ccc2c(c1)CCN(CCn1ncc3c1nc(N)n1nc(-c4ccco4)nc31)C2`, for which the AUC(0-t) at 6 h in series [2] was found to be 0.688 µg·h/mL.

Take `COCCOc1cnc2c(c1)CN(CCn1ncc3c1nc(N)n1nc(-c4ccco4)nc31)CC2`: in series [2], the AUC(0-t) at 6 h was 0.477 µg·h/mL.

For `Nc1nc2c(cnn2CCN2CCc3ncccc3C2)c2nc(-c3ccco3)nn12`, in series [2], the AUC(0-t) at 6 h was determined as 1.79 µg·h/mL.

As for `COCCOc1cccc2c1CN(CCn1ncc3c1nc(N)n1nc(-c4ccco4)nc31)CC2`, the AUC(0-t) at 6 h in series [2] was found to be 0.031 µg·h/mL.

For the origin of these results see ChEMBL document CHEMBL1155013, “Design, synthesis, and evaluation of fused heterocyclic analogs of SCH 58261 as adenosine A2A receptor antagonists” (Bioorg Med Chem Lett, 2008).
